Measured values reported in ChEMBL document CHEMBL5550165, “Novel quinoxaline analogs as telomeric G-quadruplex ligands exert antitumor effects related to enhanced immunomodulation” (Eur J Med Chem, 2024).
Activity calls are given as the source filed them. No cut-off for these calls is given here.

Key:
MDA-MB-231 [1] = experiment: Induction of cell cycle arrest in human MDA-MB-231 cells assessed as accumulation of cells at G2/M phase at 2 uM incubated for 24 hrs by RNase/PI staining based flow cytometry (reference value: 11.3 %); format: functional
[2] = Toxicity in BALB/c mouse implanted with mouse 4T1 cells assessed as histopathological change in kidney at 10 mg/kg,ip every other day for 14 days by hematoxylin and eosin staining analysis; format: organism-based; conditions: in vivo, 336 h, time 14 day
MDA-MB-231 [3] = experiment: Induction of DNA damage in human MDA-MB-231 cells assessed as upregulation of ATM phosphorylation incubated for 24 hrs by Western blot analysis; format: functional, cell-based
MDA-MB-231 [4] = experiment: Induction of immunogenic cell death in human MDA-MB-231 cells assessed as increase in ATP release at 1 to 4 uM incubated for 24 hrs by ELISA; format: functional, cell-based; conditions: dose 1-4 µM
BMDC [5] = experiment: Induction of immunogenic cell death in BALB/c mouse BMDC cells co-cultured with mouse 4T1 cells assessed as increase in CD11c+ CD80+ CD86 cells maturation at 5 uM incubated for 24 hrs by flow cytometry (reference value: 69.4 %); format: functional
[6] = Toxicity in BALB/c mouse implanted with mouse 4T1 cells assessed as histopathological change in heart at 10 mg/kg,ip every other day for 14 days by hematoxylin and eosin staining analysis; format: organism-based; conditions: in vivo, 336 h, time 14 day
Quadruplex DNA [7] = experiment: Stabilization of G-quadruplex telomeric DNA in human MDA-MB-231 cells assessed as increase in S9.6-positive cell nuclei at 3 uM incubated for 24 hrs by DAPI staining based immunofluorescence microscopic analysis
Quadruplex DNA [8] = experiment: Stabilization of G-quadruplex telomeric DNA in human MDA-MB-231 cells assessed as R-loop formation in mitochondria by measuring increase in S9.6 intensity at 3 uM incubated for 24 hrs by DAPI staining based immunofluorescence microscopic analysis
DNA [9] = experiment: Binding affinity to DNA (unknown origin) assessed as dissociation constant by Benesi-Hildebrand equation based analysis; format: nucleic-acid assay
MDA-MB-231 [10] = experiment: Induction of DNA damage in human MDA-MB-231 cells assessed as upregulation of CHK2 phosphorylation incubated for 24 hrs by Western blot analysis; format: functional, cell-based
MDA-MB-231 [11] = experiment: Cytotoxicity against human MDA-MB-231 cells incubated for 24 hrs by CCK-8 reagent based spectrophotometric analysis; format: functional, cell-based; conditions: MDA-MB-231, 24 h
DNA [12] = experiment: Binding affinity to Hairpin DNA (unknown origin) assessed as thermal shift at 10 uM by UV-Visible spectrophotometric analysis; format: nucleic-acid assay
MDA-MB-231 [13] = experiment: Induction of immunogenic cell death in human MDA-MB-231 cells assessed as increase in CRT expression incubated for 24 hrs by Alexa Fluor 647 flow cytometric assay; format: functional, cell-based
MDA-MB-231 [14] = experiment: Induction of DNA damage in human MDA-MB-231 cells assessed as upregulation of CHK2 phosphorylation at 4 uM by Western blot analysis; format: functional, cell-based; conditions: TDE = time-dependent effect
MDA-MB-231 [15] = experiment: Induction of apoptosis in human MDA-MB-231 cells assessed as upregulation of cleaved caspase-3 expression at 1 to 4 uM incubated for 24 hrs by Western blot analysis; format: functional, cell-based; conditions: dose 1-4 µM
4T1 [16] = experiment: Antitumor activity against mouse 4T1 cells implanted in BALB/c mouse assessed as reduction in tumor weight at 10 mg/kg,ip every other day for 14 days; format: functional, organism-based; conditions: time 14.0 day
MDA-MB-231 [17] = experiment: Induction of cell cycle arrest in human MDA-MB-231 cells assessed as downregulation of Cyclin B1 expression at 1 to 4 uM incubated for 24 hrs by Western blot analysis; format: functional, cell-based; conditions: dose 1-4 µM
[18] = Toxicity in BALB/c mouse implanted with mouse 4T1 cells assessed as histopathological change in liver at 10 mg/kg,ip every other day for 14 days by hematoxylin and eosin staining analysis; format: organism-based; conditions: in vivo, 336 h, time 14 day
4T1 [19] = experiment: Antitumor activity against mouse 4T1 cells implanted in BALB/c mouse assessed as upregulation of cleaved caspase-3 expression in tumor at 10 mg/kg,ip every other day for 14 days by Western blot analysis; format: functional, organism-based; conditions: time 14.0 day
BMDC [20] = experiment: Induction of immunogenic cell death in BALB/c mouse BMDC cells co-cultured with mouse 4T1 cells assessed as increase in CD11c+ CD80+ CD86 cells maturation at 2.5 uM incubated for 24 hrs by flow cytometry (reference value: 69.4 %); format: functional
MDA-MB-231 [21] = experiment: Inhibition of cell migration in human MDA-MB-231 cells incubated for 48 hrs by wound scrape assay; format: functional, cell-based
Quadruplex DNA [22] = experiment: Stabilization of G-quadruplex telomeric DNA in human MDA-MB-231 cells assessed as increase in colocalization of BG4 and TRF2 formation foci at 3 uM incubated for 24 hrs by DAPI staining based immunofluorescence microscopic analysis; format: cell-based
U2OS = experiment: Cytotoxicity against human U2OS cells incubated for 24 hrs by CCK-8 reagent based spectrophotometric analysis; format: functional, cell-based
Quadruplex DNA [23] = experiment: Binding affinity to G-quadruplex telomeric DNA (unknown origin) assessed as thermal shift at 10 uM by UV-Visible spectrophotometric analysis; format: nucleic-acid assay
MDA-MB-231 [24] = experiment: Induction of cell cycle arrest in human MDA-MB-231 cells assessed as accumulation of cells at G0/G1 phase at 2 uM incubated for 24 hrs by RNase/PI staining based flow cytometry (reference value: 82.3 %); format: functional
4T1 [25] = experiment: Antitumor activity against mouse 4T1 cells implanted in BALB/c mouse assessed as damage in tumor tissue at 10 mg/kg,ip every other day for 14 days by hematoxylin and eosin staining analysis; format: functional, organism-based; conditions: time 14.0 day
MDA-MB-231 [26] = experiment: Induction of cell cycle arrest in human MDA-MB-231 cells assessed as accumulation of cells at G0/G1 phase at 4 uM incubated for 24 hrs by RNase/PI staining based flow cytometry (reference value: 82.3 %); format: functional
[27] = Toxicity in BALB/c mouse implanted with mouse 4T1 cells assessed as histopathological change in lung at 10 mg/kg,ip every other day for 14 days by hematoxylin and eosin staining analysis; format: organism-based; conditions: in vivo, 336 h, time 14 day
MDA-MB-231 [28] = experiment: Induction of cell cycle arrest in human MDA-MB-231 cells assessed as accumulation of cells at S phase at 2 uM incubated for 24 hrs by RNase/PI staining based flow cytometry (reference value: 6.3 %); format: functional
MDA-MB-231 [29] = experiment: Induction of apoptosis in human MDA-MB-231 cells assessed as upregulation of cleaved PARP expression at 1 to 4 uM incubated for 24 hrs by Western blot analysis; format: functional, cell-based; conditions: dose 1-4 µM
MDA-MB-231 [30] = experiment: Induction of cell cycle arrest in human MDA-MB-231 cells assessed as accumulation of cells at G2/M phase at 4 uM incubated for 24 hrs by RNase/PI staining based flow cytometry (reference value: 11.3 %); format: functional
[31] = Toxicity in BALB/c mouse implanted with mouse 4T1 cells assessed as histopathological change in spleen at 10 mg/kg,ip every other day for 14 days by hematoxylin and eosin staining analysis; format: organism-based; conditions: in vivo, 336 h, time 14 day
MDA-MB-231 [32] = experiment: Induction of cell cycle arrest in human MDA-MB-231 cells assessed as accumulation of cells at S phase at 4 uM incubated for 24 hrs by RNase/PI staining based flow cytometry (reference value: 6.3 %); format: functional
Quadruplex DNA [33] = experiment: Binding affinity to KRAS G-quadruplex telomeric DNA (unknown origin) assessed as […] by measuring melting temperature by FRET assay; format: nucleic-acid assay
MDA-MB-231 [34] = experiment: Induction of DNA damage in human MDA-MB-231 cells assessed as upregulation of ATM phosphorylation at 4 uM by Western blot analysis; format: functional, cell-based; conditions: TDE = time-dependent effect

For `CN(C)CCN(C)c1ccc(-c2nc3ccc(C(F)(F)F)cc3nc2-c2ccc(N(C)CCN(C)C)cc2)cc1`, the Activity (MDA-MB-231 [1]) was 11.5%, the Activity [2] was “Non-Toxic” and the Activity (MDA-MB-231 [3]) was “Dose-Dependent Effect”. For the same compound, the Activity (MDA-MB-231 [4]) was “Active”, the Activity (BMDC [5]) was 77.9% and the Activity [6] was “Non-Toxic”. The Activity (Quadruplex DNA [7]) was “Active”, the Activity (Quadruplex DNA [8]) was “Active” and the Kd (DNA [9]) was 1.4 µM. The Activity (MDA-MB-231 [10]) was “Dose-Dependent Effect”, the IC50 (MDA-MB-231 [11]) was 1.7 µM and the Activity (DNA [12]) was “inactive”. The Activity (MDA-MB-231 [13]) was “Dose-Dependent Effect”, the Activity (MDA-MB-231 [14]) was “Tde” and the Activity (MDA-MB-231 [15]) was “Active”. For the same compound, the Activity (4T1 [16]) was “Active”, the Activity (MDA-MB-231 [17]) was “Active” and the Activity [18] was “Non-Toxic”. The Activity (4T1 [19]) was “Active”, the Activity (BMDC [20]) was 70.1% and the inhibition (MDA-MB-231 [21]) was “Dose-Dependent Effect”. The Activity (Quadruplex DNA [22]) was “Active”, the IC50 (U2OS) was 3 µM and the Activity (Quadruplex DNA [23]) was “Active”. The Activity (MDA-MB-231 [24]) was 81.6%, the Activity (4T1 [25]) was “Active” and the Activity (MDA-MB-231 [26]) was 70.3%. For the same compound, the Activity [27] was “Non-Toxic”, the Activity (MDA-MB-231 [28]) was 6.9% and the Activity (MDA-MB-231 [29]) was “Active”. For the same compound, the Activity (MDA-MB-231 [30]) was 20.9%, the Activity [31] was “Non-Toxic” and the Activity (MDA-MB-231 [32]) was 8.6%. For the same compound, the Activity (Quadruplex DNA [33]) was “Active” and the Activity (MDA-MB-231 [34]) was “Tde”.
